Experimental data published in patent publication US9586951B2 (FUJIFILM Corporation, priority 2013, dated 2017).

Experiments:
[1] = molecular target: T1, ATM (Homo sapiens, UniProt Q13315); assay: ATM inhibition test (phosphorylation of Chk2 generated by ionizing radiation, AlphaScreen SureFire); assay type: cell-based; conditions: phosphorylated Chk2 in NCI-H460 cells, ionizing radiation 8Gy, 1 hour after test compound treatment; read-out: ATM inhibitory activity
T1 construct: detecting phosphorylation of Chk2 in a human non-small cell lung cancer cell line NCI-H460 (ATCC company); host or cells: NCI-H460 human non-small cell lung cancer cells
T1 sequence (Q13315 whole entry): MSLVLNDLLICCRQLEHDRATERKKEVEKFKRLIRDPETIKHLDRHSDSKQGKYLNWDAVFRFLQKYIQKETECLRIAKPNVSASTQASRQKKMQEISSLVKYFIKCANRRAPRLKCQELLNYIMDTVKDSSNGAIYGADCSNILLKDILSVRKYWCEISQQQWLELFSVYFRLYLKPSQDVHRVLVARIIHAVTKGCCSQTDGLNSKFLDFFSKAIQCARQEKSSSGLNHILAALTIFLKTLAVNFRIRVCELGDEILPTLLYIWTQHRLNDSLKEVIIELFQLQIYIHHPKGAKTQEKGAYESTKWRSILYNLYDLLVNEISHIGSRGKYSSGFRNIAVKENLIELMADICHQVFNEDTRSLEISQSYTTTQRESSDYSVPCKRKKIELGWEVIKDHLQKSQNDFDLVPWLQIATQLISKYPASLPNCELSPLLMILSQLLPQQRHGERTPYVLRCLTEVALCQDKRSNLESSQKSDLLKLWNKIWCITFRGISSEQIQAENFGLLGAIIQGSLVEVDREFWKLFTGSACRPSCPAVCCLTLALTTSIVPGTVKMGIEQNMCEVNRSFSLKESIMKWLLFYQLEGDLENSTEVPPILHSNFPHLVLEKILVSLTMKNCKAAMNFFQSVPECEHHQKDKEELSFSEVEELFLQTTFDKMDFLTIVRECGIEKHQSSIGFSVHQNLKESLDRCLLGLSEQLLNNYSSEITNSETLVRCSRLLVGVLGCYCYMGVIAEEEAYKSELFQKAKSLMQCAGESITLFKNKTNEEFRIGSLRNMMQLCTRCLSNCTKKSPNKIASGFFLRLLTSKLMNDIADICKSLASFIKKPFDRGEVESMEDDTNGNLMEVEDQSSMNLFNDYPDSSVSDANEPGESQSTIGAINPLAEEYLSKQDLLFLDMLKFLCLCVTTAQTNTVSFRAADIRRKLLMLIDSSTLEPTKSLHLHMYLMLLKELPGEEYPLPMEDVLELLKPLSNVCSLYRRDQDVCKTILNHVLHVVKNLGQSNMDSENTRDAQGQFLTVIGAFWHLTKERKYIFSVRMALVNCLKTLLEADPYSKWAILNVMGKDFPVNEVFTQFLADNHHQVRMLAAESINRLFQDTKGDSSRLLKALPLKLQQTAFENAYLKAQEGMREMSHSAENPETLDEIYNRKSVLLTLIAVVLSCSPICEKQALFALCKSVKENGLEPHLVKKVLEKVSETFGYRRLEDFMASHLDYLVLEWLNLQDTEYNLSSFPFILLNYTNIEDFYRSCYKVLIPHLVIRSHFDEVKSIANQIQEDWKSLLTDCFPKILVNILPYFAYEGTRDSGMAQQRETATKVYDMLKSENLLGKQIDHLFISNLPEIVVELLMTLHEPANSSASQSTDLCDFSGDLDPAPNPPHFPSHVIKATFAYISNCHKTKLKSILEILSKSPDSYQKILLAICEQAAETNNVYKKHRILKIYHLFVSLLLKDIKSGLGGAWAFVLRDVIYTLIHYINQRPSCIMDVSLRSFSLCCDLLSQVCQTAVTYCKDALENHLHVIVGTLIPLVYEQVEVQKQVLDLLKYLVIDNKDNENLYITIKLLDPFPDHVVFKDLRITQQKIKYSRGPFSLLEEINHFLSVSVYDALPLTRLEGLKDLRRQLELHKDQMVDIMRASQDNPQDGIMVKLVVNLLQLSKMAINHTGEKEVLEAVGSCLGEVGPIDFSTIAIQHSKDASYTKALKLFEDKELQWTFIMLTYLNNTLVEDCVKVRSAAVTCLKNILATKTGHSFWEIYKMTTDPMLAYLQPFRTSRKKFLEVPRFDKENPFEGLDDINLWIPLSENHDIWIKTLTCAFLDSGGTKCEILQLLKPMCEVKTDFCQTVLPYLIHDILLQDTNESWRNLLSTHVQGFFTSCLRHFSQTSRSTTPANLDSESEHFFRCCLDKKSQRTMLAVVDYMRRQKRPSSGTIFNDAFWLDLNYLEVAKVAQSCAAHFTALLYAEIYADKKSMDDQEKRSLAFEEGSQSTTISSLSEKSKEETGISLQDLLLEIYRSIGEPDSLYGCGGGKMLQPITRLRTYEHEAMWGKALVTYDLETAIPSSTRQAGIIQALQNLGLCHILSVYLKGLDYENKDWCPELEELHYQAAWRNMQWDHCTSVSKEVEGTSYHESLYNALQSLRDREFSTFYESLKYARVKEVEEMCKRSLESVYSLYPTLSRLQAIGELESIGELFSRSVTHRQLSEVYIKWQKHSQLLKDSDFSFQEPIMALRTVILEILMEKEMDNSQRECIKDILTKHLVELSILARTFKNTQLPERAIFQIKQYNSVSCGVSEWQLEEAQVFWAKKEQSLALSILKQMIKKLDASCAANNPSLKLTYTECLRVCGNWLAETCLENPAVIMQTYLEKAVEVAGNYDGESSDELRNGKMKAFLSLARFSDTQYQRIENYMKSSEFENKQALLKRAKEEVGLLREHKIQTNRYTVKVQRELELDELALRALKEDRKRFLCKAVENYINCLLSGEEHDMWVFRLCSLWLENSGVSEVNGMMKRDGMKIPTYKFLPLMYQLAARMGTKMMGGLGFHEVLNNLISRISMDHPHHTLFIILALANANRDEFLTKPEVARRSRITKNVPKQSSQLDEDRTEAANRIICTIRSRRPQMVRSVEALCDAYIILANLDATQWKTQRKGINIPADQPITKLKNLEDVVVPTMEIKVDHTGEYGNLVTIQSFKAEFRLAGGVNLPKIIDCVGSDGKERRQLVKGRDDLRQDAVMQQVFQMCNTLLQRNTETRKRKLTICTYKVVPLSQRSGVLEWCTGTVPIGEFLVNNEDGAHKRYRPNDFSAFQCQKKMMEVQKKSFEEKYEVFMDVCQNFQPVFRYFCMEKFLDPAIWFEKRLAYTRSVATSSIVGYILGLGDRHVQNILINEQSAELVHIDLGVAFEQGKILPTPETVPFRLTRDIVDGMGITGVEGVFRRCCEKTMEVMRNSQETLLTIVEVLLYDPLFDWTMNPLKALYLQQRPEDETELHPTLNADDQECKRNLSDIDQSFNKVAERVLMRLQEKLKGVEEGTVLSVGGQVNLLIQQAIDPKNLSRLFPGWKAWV
How it was run: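 Human NCI-H460 lung cancer cells were treated with compound for 1 h, then irradiated at 8Gy and incubated 1 h at 37° C. Phospho-Chk2 was quantified by AlphaScreen SureFire; inhibition % was normalised between irradiated untreated and non-irradiated untreated wells.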

[2] = test system: human non-small cell lung cancer cell line NCI-H460; assay: Cell proliferation inhibition test by sensitivity-enhancing to ionizing radiation (Cell Titer Glo); assay type: cell-based; conditions: Homo sapiens, concentration in which SER became 2, NCI-H460 cells, ionizing radiation 2 Gy, cultured 120 hour
Procedure: A human non-small cell lung cancer cell line NCI-H460 (ATCC company) was adjusted so as to be 2×10^3 cells/mL in a RPMI-1640 medium containing penicillin/streptomycin and FBS having a final concentration of 10%, and this was seeded by 100 μL per well in 96-well CellBIND® plates (Corning International Inc.). After 24 hours, the medium of cells was replaced with 100 μL of a medium including serially diluted liquid of the test compound or DMSO having a final concentration of 0.1%. 30 minutes after the medium was replaced, half of the plates were irradiated with ionizing radiation 2 Gy (Faxitron Bioptics, LLC, RX-650 type). The cells of the plates irradiated with ionizing radiation and the plates not being irradiated with ionizing radiation were cultured at 37° C. for 120 hour in 5% CO2. After a Cell Titer Glo reaction liquid of an equal volume was added to each well, the amount of luminescence was measured, according to the instruction book of Cell Titer Glo (Promega Corporation). Since the amount of luminescence is proportional to the ATP concentration in cells, the amount of luminescence was used as an indicator of the number of viable cells. Sensitivity-enhancing effects (SER) to ionizing radiation by the test compound was calculated by the following equation. SER=(amount of luminescence of wells including DMSO having a final concentration of 0.1% in the plates irradiated with ionizing radiation×amount of luminescence of wells including a compound in the plates not being irradiated with ionizing radiation)/(amount of luminescence of wells including the test compound in the plates irradiated with ionizing radiation×amount of luminescence of wells including DMSO having a final concentration of 0.1% in the plates not being irradiated with ionizing radiation)
SER at each compound concentration was plotted by nonlinear regression fit (FitModel (205)) by a sigmoidal dose-response equation using XLfit software (IDBS), and the concentration (SER2) in which SER became 2 was calculated.

Compound | IC50 [1] | SER2 (concentration at which the radiation sensitivity-enhancement ratio reaches 2) ([2]; NCI-H460, 120 h) | SER2 (concentration at which the radiation sensitivity-enhancement ratio reaches 2) [2]
Cc1cccc(C(C)Nc2ccc3c(c2)Cc2cccc(-c4cc(N5CCOCC5)cc(=O)[nH]4)c2O3)n1 (centres unmarked) [Example 2-14-18, 6-(7-((1-(6-Methylpyridin-2-yl)ethyl)amino)-9H-xanthen-4-yl)-4-morpholino pyridin-2(1H)-one] | 100 to 500 nM | 100 to 500 nM | –
O=c1cc(N2CCOCC2)cc(-c2cccc3c2Oc2ccc(NCc4cncc(N5CCC5)c4)cc2C3)[nH]1 [Example 2-2-69, 6-(7-(((5-(Azetidin-1-yl)pyridin-3-yl)methyl)amino)-9H-xanthen-4-yl)-4-morpholino pyridin-2(1H)-one] | < 100 nM | 500 to 2000 nM | –
CC1CN(CCNc2ccc3c(c2)Sc2cccc(-c4cc(N5CCOCC5)cc(=O)[nH]4)c2S3)CCO1 (centres unmarked) [Example 1-16-6, 6-(7-((2-(2-Methylmorpholino)ethyl)amino)thianthren-1-yl)-4-morpholinopyridin-2(1H)-one] | < 100 nM | – | 100 to 500 nM
CC(CN1CCN(C)CC1)Nc1ccc2c(c1)Sc1cccc(-c3cc(N4CCOCC4)cc(=O)[nH]3)c1S2 (racemic) [Example 1-13-3-1, 6-(7-((1-(4-Methylpiperazin-1-yl)propan-2-yl)amino)thianthren-1-yl)-4-morpholinopyridin-2(1H)-one] | < 100 nM | 100 to 500 nM | –
COc1cc(CNc2ccc3c(c2)Cc2cccc(-c4cc(N5CCOCC5)cc(=O)[nH]4)c2O3)cnc1OC [Example 2-2-35, 6-(7-(((5,6-Dimethoxypyridin-3-yl)methyl)amino)-9H-xanthen-4-yl)-4-morpholino pyridin-2(1H)-one] | < 100 nM | 500 to 2000 nM | –
O=c1cc(N2CCOCC2)cc(-c2cccc3c2Oc2ccc(NCc4ccnc(Br)c4)cc2S3)[nH]1 [Example 4-4-16, 6-(8-(((2-Bromopyridin-4-yl)methyl)amino)phenoxathiin-4-yl)-4-morpholino pyridin-2(1H)-one] | < 100 nM | 100 to 500 nM | –
N#Cc1ccnc(CNc2ccc3c(c2)Sc2cccc(-c4cc(N5CCOCC5)cc(=O)[nH]4)c2S3)c1 [Example 1-12-28, 2-(((6-(4-Morpholino-6-oxo-1,6-dihydro-pyridin-2-yl)thianthren-2-yl)amino)methyl) isonicotinonitrile] | < 100 nM | 100 to 500 nM | –
COCCOCC(Nc1ccc2c(c1)Sc1cccc(-c3cc(N4CCOCC4)cc(=O)[nH]3)c1S2)c1nccc(C)n1 (centres unmarked) [Example 1-12-97, 6-(7-((2-(2-Methoxyethoxy)-1-(4-methylpyrimidin-2-yl)ethyl)amino)thianthren-1-yl)-4-morpholino pyridin-2(1H)-one] | < 100 nM | 100 to 500 nM | –
O=c1cc(N2CCOCC2)cc(-c2cccc3c2Sc2ccc(NCc4cccc(Cl)n4)cc2S3)[nH]1 [Example 1-12-6, 6-(7-(((6-Chloropyridin-2-yl)methyl)amino)thianthren-1-yl)-4-morpholino pyridin-2 (1H)-one] | < 100 nM | 100 to 500 nM | –
CCC(Nc1ccc2c(c1)Cc1cccc(-c3cc(N4CCOCC4)cc(=O)[nH]3)c1O2)c1cncc(OC)c1 (centres unmarked) [Example 2-14-16, 6-(7-((1-(5-Methoxypyridin-3-yl)propyl)amino)-9H-xanthen-4-yl)-4-morpholino pyridin-2 (1H)-one] | < 100 nM | < 100 nM | –
Cc1cncc(C(C)Nc2ccc3c(c2)Sc2cccc(-c4cc(N5CCOCC5)cc(=O)[nH]4)c2S3)c1 (centres unmarked) [Example 1-12-50, 6-(7-((1-(5-Methylpyridin-3-yl)ethyl)amino)thianthren-1-yl)-4-morpholino pyridin-2 (1H)-one] | < 100 nM | 100 to 500 nM | –
O=c1cc(N2CCOCC2)cc(-c2cccc3c2Oc2ccc(NCc4cnc5ccccc5c4)cc2S3)[nH]1 [Example 4-4-15, 4-Morpholino-6-(8-((quinolin-3-ylmethyl)amino)phenoxathiin-4-yl) pyridin-2(1H)-one] | < 100 nM | 100 to 500 nM | –
COc1cc(CNc2ccc3c(c2)Sc2cccc(-c4cc(N5CCOCC5)cc(=O)[nH]4)c2O3)cnc1OC [Example 4-4-12, 6-(8-(((5,6-Dimethoxypyridin-3-yl)methyl)amino)phenoxathiin-4-yl)-4-morpholino pyridin-2(1H)-one] | < 100 nM | 100 to 500 nM | –
COc1ccncc1CNc1ccc2c(c1)Cc1cccc(-c3cc(N4CCOCC4)cc(=O)[nH]3)c1O2 [Example 2-2-34, 6-(7-(((4-Methoxypyridin-3-yl)methyl)amino)-9H-xanthen-4-yl)-4-morpholino pyridin-2(1H)-one] | 500 to 2000 nM | – | –
COc1ccc(CNc2ccc3c(c2)Sc2cccc(-c4cc(N5CCOCC5)cc(=O)[nH]4)c2S3)nc1 [Example 1-12-12, 6-(7-(((5-Methoxypyridin-2-yl)methyl)amino)thianthren-1-yl)-4-morpholino pyridin-2(1H)-one] | 100 to 500 nM | – | –
CC(CN1CCN(Cc2ccncc2)CC1)Nc1ccc2c(c1)Sc1cccc(-c3cc(N4CCOCC4)cc(=O)[nH]3)c1S2 (centres unmarked) [Example 1-15-4, 4-Morpholino-6-(7-((1-(4-(pyridin-4-ylmethyl)piperazin-1-yl)propan-2-yl)amino)thianthren-1-yl)pyridin-2(1H)-one] | 100 to 500 nM | – | –
CC(C(=O)Nc1ccc2c(c1)Sc1cccc(-c3cc(N4CCOCC4)cc(=O)[nH]3)c1S2)N1CCOCC1 (centres unmarked) [Example 1-8, 2-Morpholino-N-(6-(4-morpholino-6-oxo-1,6-dihydropyridin-2-yl)thianthren-2-yl)propanamide] | 500 to 2000 nM | – | –
CCN(C)CCC(Nc1ccc2c(c1)Sc1cccc(-c3cc(N4CCOCC4)cc(=O)[nH]3)c1S2)c1cnc(C)cn1 (single isomer, unassigned) [Example 1-51-10, 6-(7-((3-(Ethyl(methyl)amino)-1-(5-methylpyrazin-2-yl)propyl)amino)thianthren-1-yl)-4-morpholino pyridin-2(1H)-one] | < 100 nM | – | –
CC(CN1CCN(C)CC1)Nc1ccc2c(c1)Sc1cccc(-c3cc(=O)cc(N4CCOCC4)o3)c1S2 (centres unmarked) [Example 11-4, 2-(7-((1-(4-Methylpiperazin-1-yl)propan-2-yl)amino)thianthren-1-yl)-6-morpholino-4H-pyran-4-one] | 100 to 500 nM | – | –
O=c1cc(N2CCOCC2)cc(-c2cccc3c2Sc2ccc(NC4CCCN(Cc5ccncc5)C4)cc2S3)[nH]1 (centres unmarked) [Example 1-24-4, 4-Morpholino-6-(7-((1-(pyridin-4-ylmethyl)piperidin-3-yl)amino)thianthren-1-yl)pyridin-2 (1H)-one] | < 100 nM | – | –
Cc1cncc(C(C)Nc2ccc3c(c2)Cc2cccc(-c4cc(N5CCOCC5)cc(=O)[nH]4)c2O3)c1 (single isomer, unassigned) [Example 2-14-88-1, 6-(7-((1-(5-methylpyridin-3-yl)ethyl)amino)-9H-xanthen-4-yl)-4-morpholinopyridin-2(1H)-one] | 100 to 500 nM | – | –
O=c1cc(N2CCOCC2)cc(-c2cccc3c2Oc2ccc(NC4CCN(c5ccccn5)CC4)cc2C3)[nH]1 [Example 2-2-27, 4-Morpholino-6-(7-((1-(pyridin-2-yl)piperidin-4-yl)amino)-9H-xanthen-4-yl) pyridin-2(1H)-one] | 100 to 500 nM | – | –
